The values that follow come from US7915257B2, “Use of triazinetrione sulfones for combating coccidiosis” (Bayer Animal Health GmbH, priority 2000, dated 2011).

Data set [1] concerns Eimeria spp. (principal species E. ovinoidalis and E. crandallis). Put plainly: Field trial, treatment of natural coccidiosis infections of grazing lambs. The format is in vivo, Sheep. The following applies: 5% w/v suspension as drench on day 7; toltrazuril 20 mg/kg, ponazuril 10 and 20 mg/kg; low infection pressure. How it is done: B. Field Trial of the Efficacy of Ponazuril Compared with Toltrazuril for the Treatment of Natural Infections of Grazing Lambs with Coccidiosis:
The aim of the trials was to compare toltrazuril and ponazuril for efficacy on natural infections with pathogens of the Eimeria family.
The active ingredients were compared in three consecutive experiments: • Experiment 1: untreated control—toltrazuril 20 mg/kg—ponazuril 20 mg/kg • Experiment 2: untreated control—ponazuril 20 mg/kg • Experiment 3: untreated control—toltrazuril 20 mg/kg—ponazuril 10 mg/kg.
The oocyst excretion and the consistency of the faeces were used as main parameters. The weight of the stock was likewise checked occasionally.

The nature of data set [2]: Acute oral toxicity (LD50 rat, oral). The format is in vivo. The following applies: for NOEL: LD50 rat, oral investigation; for LD50 rat, oral: printed in column Dosage (NOEL). As for the experimental part: (§1) The following toxicity data were determined in accordance with OECD/GLP guidelines, in particular OECD 414, 401 and 408. The investigations of the teratogenicity of the compounds was carried out in accordance with the US guidelines—“Teratogenicity study”, Guidelines for Registering Pesticides in the U.S.A., U.S. Environmental Protection Agency, Hazard Evaluation: Human and 10 Domestic Animals. U.S. Federal Register, Vol. 43, paragraph 163.83-3, adopted November 1982.

The conditions of data set [3]: in vivo. As for the experimental part:
as §1

Data set [4] deals with Isospora suis. Particulars: coccidiosis (Isospora suis) in pigs; cited from earlier work.
Data set [5] relates to Isospora suis. The following applies: experimentally infected piglets; cited from earlier work.
Data set [6] relates to Eimeria tenella, E. maxima and E. acervulina. Put plainly: Efficacy of ponazuril on artificially induced mixed infection of chickens, cage housing. Type of data set: in vivo. How it is done:
Groups each of 44 birds (4 replicates per treatment of 11 birds in each case) were formed and, on day 14, infected with sporulated oocysts. Ponazuril was administered each day on day 10-24 or 17-24. Three dosages in the feed were used in both treatment periods: 5 ppm, 10 ppm and 20 ppm. The result of the treatment was determined by various clinical and parasitological parameters, including the mortality caused by the coccidiosis and the oocyst excretion in the faeces.

Read-outs that look alike come from different tables or passages of the source. A value given as a limit tells only on which side of the number the result lay.

For `Cc1cc(-n2c(=O)[nH]c(=O)n(C)c2=O)ccc1Oc1ccc(SC(F)(F)F)cc1` [toltrazuril], the “efficacy (oocyst excretion, consistency of the faeces)” value in data set [1] is recorded as “completely effective”. Moreover, the NOEL in data set [2] is <1000 mg/kg of body weight; in data set [3] (dog), 1.5 mg/kg of body weight; in data set [3] (rabbit), 2.0 mg/kg of body weight; in data set [3] (rat), 1.0 mg/kg of body weight; in data set [3] (rat, 90 days), 1.1 mg/kg of body weight. Besides, the “LD50 rat, oral” value in data set [2] was 1600-5000 mg/kg mg/kg of body weight. In addition, in the data set with Isospora suis [4], the “suitability for treating coccidiosis” value is reported as “suitable for treating coccidiosis”.

`O=C1OCCN1/N=C/c1ccc([N+](=O)[O-])o1` [furazolidone]: the prevention of disease entry in the data set with Isospora suis [5] was “not possible to prevent disease”.

Consider `CC[C@@]1([C@@H]2O[C@@H]([C@H]3O[C@@](O)(CO)[C@H](C)C[C@@H]3C)C[C@@H]2C)CC[C@H]([C@]2(C)CC[C@]3(C[C@H](O)[C@@H](C)[C@@H]([C@@H](C)[C@@H](OC)[C@H](C)C(=O)O)O3)O2)O1` [monensin], for which the prevention of disease result with Isospora suis [5] is recorded as “not possible to prevent disease”.

Regarding `CCCc1ncc(C[n+]2ccccc2C)c(N)n1` [amprolium], in the data set on Isospora suis [5], the prevention of disease entry is “not possible to prevent disease”.

Take `Cc1cc(-n2c(=O)[nH]c(=O)n(C)c2=O)ccc1Oc1ccc(S(=O)(=O)C(F)(F)F)cc1` [ponazuril]: the “efficacy (oocyst excretion, consistency of the faeces)” value in data set [1] was “completely effective”. Also, the “control of the infection” value in data set [6] (5, 10 and 20 ppm in the feed, daily on day 10-24 or 17-24, infection day 14) is “possible to control the infection with all dosages and treatment schedules”. Besides, in data set [6] (early start of the treatment), the “parasitological findings (oocyst excretion and number of lesions)” value is given as “reduced the parasitological findings significantly”. Besides, the “technical parameters (body weight gain and feed conversion)” value in data set [6] (early start of the treatment) is “improved the technical parameters”. Besides, the “dosage with best results” value in data set [6] (highest dosage, 20 mg of ponazuril in the feed (approx. 3.5 mg/kg of body weight and day)) is “best results”. Besides, the NOEL in data set [2] is listed as 5000 mg/kg of body weight; in data set [3] (dog), 8.3 mg/kg of body weight; in data set [3] (rabbit), 30 mg/kg of body weight; in data set [3] (rat), 90 mg/kg of body weight; in data set [3] (rat, 90 days) it was 11.2 mg/kg of body weight. The “LD50 rat, oral” value in data set [2] is >5000 mg/kg of body weight.
